{
  "source": "patent US20100234766A1",
  "about": "“Topical administration of a salt compound to facilitate venipuncture” (priority 2006, published 2010)",
  "key": {"[1]": {"test_system": "veins visible on the dorsum of the hand", "experiment": "Peripheral venous filling time after topical application (Example 1)", "format": "in vivo, human", "settings": "for VENOUS FILL TIME: average of two subjects; for effect on venous fill time (in words): topical application, dorsum of hand, summary of Table 1", "experimental": "Several studies were conducted to determine the effect of topically applied compounds on peripheral venous filling. The same two healthy adult male volunteer subjects were used for each of the studies.\nIn each study, a baseline value for peripheral venous filling time was determined as follows. Each subject held their outstretched arm vertically with hand directed upwards toward the ceiling for a period of time sufficient to cause the veins visible on the dorsum of the hand to attain their minimum dilation. Then, the subject lowered their hand and held their outstretched arm vertically with hand directed downwards toward the floor for a period of time sufficient to cause the veins visible on the dorsum of the hand to attain their maximum dilation. The time for the veins to attain maximum dilation following the lowering of the hands was measured.\nThis procedure was repeated following application of a test compound to the site of visible veins on the dorsum of the hands in order to determine the effect of the test compound on venous filling. Longer venous filling times are indicative of vasodilation and increased pooling of blood within the vein."}, "vein of the inner elbow": {"test_system": "vein of the inner elbow", "experiment": "Vein diameter from visible light images after swabbing, arm stationary (Examples 3 and 4);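 on all read-outs here: agents applied to skin over the inner elbow vein with the arm resting still on a table, diameter read in pixels from images taken before and nine minutes after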", "settings": "for AVERAGE % CHANGE IN VEIN DIAMETER: nine minutes following application; for vasodilation of the vein of the elbow (in words): summary of Table 4, salts at 10 mM; for Diameter Post-Application / Diameter Pre-Application / Percent change (vein diameter): Example 3; for Diameter Post-Application: endpoint image nine minutes following application, concentration as in test agent label; for Diameter Pre-Application: initial image prior to application of test agent (baseline); for Percent change (vein diameter): nine minutes following application versus pre-application", "protocol": "Studies in Example 2 were performed except that the vein of the inner elbow, the site most frequently used for phlebotomy, was evaluated and vein diameter was measured from enlarged, sequential, visible light images. […] Instead the response to swabbing was recorded with the arm in a stationary position resting on a table top.\nThe initial image was taken prior to application of each test agent. The endpoint image was taken nine minutes following application of the test agent. The vein diameters were measured in pixels.\nThe procedure of Example 3 was repeated utilizing swabs impregnated with various salt compounds on one to three adult male and female subjects. Each test compound was applied to the skin overlying the vein of the inner elbow. The initial image was taken prior to application of each test agent. The endpoint image was taken nine minutes following application of the test agent. The vein diameters were measured in pixels."}, "dorsal hand veins": {"test_system": "dorsal hand veins", "experiment": "Infrared thermal imaging of dorsal hand veins after swabbing and hand elevation (Example 2)", "format": "in vivo, human", "experimental": "Infrared (IR) thermal imaging utilizing a standardized, calibrated infrared (950 nm wavelength) camera acquiring electronic images and providing color coded maps for testing effects of test vasodilator chemical compounds on dorsal hand veins was performed in three male and two female healthy volunteers. Infrared was utilized to determine the degree to which the test chemical compounds cause vasodilation because infrared provides a measure of thermal gradient and diameter that correlates well with visual indications of increased venous size and with successful first attempt venipuncture. Test agents were applied by swabbing the target area for about 30 seconds. A baseline control without application of any swab or by swabbing with a placebo swab containing no liquid was performed at the start of each test as a basis to compare imaging of the vein dilator dependent filling. IR images were obtained using a standardized, calibrated infrared (950 nm wavelength) camera that acquired an electronic image and provided a color coded thermal map. […] The swab was rubbed onto the dorsal surface of a hand of each subject and then the hand was elevated for 2 minutes after which the hand was returned to a horizontal position. IR imaging was performed on the dorsum of the hand before elevation and at intervals following the return to the horizontal position."}, "[2]": {"settings": "Study 1, baseline (none) 54 sec, EtOH 70%, MgCl2 100 mM"}, "[3]": {"settings": "Study 3, baseline (none) 51 sec, EtOH 70%, MgSO4 10 mM"}, "[4]": {"settings": "Example 4, 10 mM, one to three subjects"}, "[5]": {"settings": "Study 4, baseline (none) 39 sec, MgSO4 10 mM"}},
  "data": [
    {"compound": "CCO", "note": "[EtOH, ethyl alcohol]", "values": [
      {"measurement": "VENOUS FILL TIME", "setting": "[1]; [2]", "value": 59, "unit": "s"},
      {"measurement": "% CHANGE FROM BASELINE (venous fill time)", "setting": "[1]; [2]", "value": 9, "unit": "%"},
      {"measurement": "VENOUS FILL TIME", "setting": "[1]; [3]", "value": 38, "unit": "s"},
      {"measurement": "% CHANGE FROM BASELINE (venous fill time)", "setting": "[1]; [3]", "value": "(−25) %"},
      {"measurement": "decrease in fill time", "setting": "[1]; study 3, EtOH 70%, versus baseline", "value": 25, "unit": "%"},
      {"measurement": "effect on venous fill time (in words)", "setting": "[1]", "value": "no effect on venous fill time"}
    ]},
    {"compound": "O=S(=O)([O-])[O-].[Zn+2]", "note": "[10 mM ZnSO4, ZnSO4]", "values": [
      {"measurement": "AVERAGE % CHANGE IN VEIN DIAMETER", "setting": "vein of the inner elbow; [4]", "value": "−4.4", "unit": "%"},
      {"measurement": "vasodilation of the vein of the elbow (in words)", "setting": "vein of the inner elbow; Example 4", "value": "failed to demonstrate vasodilation"}
    ]},
    {"compound": "[Ca+2].[Cl-].[Cl-]", "note": "[10 mM CaCl2, CaCl2]", "values": [
      {"measurement": "AVERAGE % CHANGE IN VEIN DIAMETER", "setting": "vein of the inner elbow; [4]", "value": 12.0, "unit": "%"}
    ]},
    {"compound": "CC(=O)[O-].CC(=O)[O-].[Ca+2]", "note": "[10 mM Ca acetate, Ca acetate]", "values": [
      {"measurement": "AVERAGE % CHANGE IN VEIN DIAMETER", "setting": "vein of the inner elbow; [4]", "value": "−0.5", "unit": "%"},
      {"measurement": "vasodilation of the vein of the elbow (in words)", "setting": "vein of the inner elbow; Example 4", "value": "did not show vasodilation"}
    ]},
    {"compound": "O=S(=O)([O-])[O-].[Mn+2]", "note": "[10 mM MnSO4, MnSO4]", "values": [
      {"measurement": "AVERAGE % CHANGE IN VEIN DIAMETER", "setting": "vein of the inner elbow; [4]", "value": 0.0, "unit": "%"}
    ]},
    {"compound": "CC(C)O", "note": "[Isopropyl alcohol, isopropyl alcohol, reference compound]", "values": [
      {"measurement": "Diameter Post-Application", "setting": "vein of the inner elbow", "value": 55.04, "unit": "pixels"},
      {"measurement": "Diameter Pre-Application", "setting": "vein of the inner elbow", "value": 57.78, "unit": "pixels"},
      {"measurement": "Percent change (vein diameter)", "setting": "vein of the inner elbow", "value": "(−4.74) Percent"},
      {"measurement": "AVERAGE % CHANGE IN VEIN DIAMETER", "setting": "vein of the inner elbow; Example 4, 70%", "value": "−13.2", "unit": "%"},
      {"measurement": "vasodilation of the vein of the elbow (in words)", "setting": "vein of the inner elbow; Example 4", "value": "constriction of the underlying vein"},
      {"measurement": "VENOUS FILL TIME", "setting": "[1]; [5]", "value": 69, "unit": "s"},
      {"measurement": "% CHANGE FROM BASELINE (venous fill time)", "setting": "[1]; [5]", "value": 76, "unit": "%"},
      {"measurement": "effect on venous fill time (in words)", "setting": "[1]", "value": "increased venous fill time"},
      {"measurement": "effect on dorsal hand veins on IR examination (in words), early", "setting": "dorsal hand veins; Example 2a, compared to dry swab control, 30 seconds following return to horizontal, 70% isopropyl alcohol", "value": "initial vasoconstriction with reduced filling of the veins on the dorsum of the hand"}
    ]},
    {"compound": "O=C([O-])CC(O)(CC(=O)[O-])C(=O)[O-].O=C([O-])CC(O)(CC(=O)[O-])C(=O)[O-].[Mg+2].[Mg+2].[Mg+2]", "note": "[10 mM Mg citrate, Mg citrate]", "values": [
      {"measurement": "AVERAGE % CHANGE IN VEIN DIAMETER", "setting": "vein of the inner elbow; [4]", "value": 4.2, "unit": "%"}
    ]},
    {"compound": "O=S(=O)([O-])[O-].[Sr+2]", "note": "[10 mM SrSO4, SrSO4]", "values": [
      {"measurement": "AVERAGE % CHANGE IN VEIN DIAMETER", "setting": "vein of the inner elbow; [4]", "value": 16.95, "unit": "%"}
    ]},
    {"compound": "CC(=O)[O-].CC(=O)[O-].[Sr+2]", "note": "[10 mM Sr acetate, Sr acetate]", "values": [
      {"measurement": "AVERAGE % CHANGE IN VEIN DIAMETER", "setting": "vein of the inner elbow; [4]", "value": 7.35, "unit": "%"}
    ]},
    {"compound": "[Cl][Mn][Cl]", "note": "[10 mM MnCl2, MnCl2]", "values": [
      {"measurement": "AVERAGE % CHANGE IN VEIN DIAMETER", "setting": "vein of the inner elbow; [4]", "value": 2.7, "unit": "%"},
      {"measurement": "vasodilation of the vein of the elbow (in words)", "setting": "vein of the inner elbow; Example 4", "value": "mild vasodilation"}
    ]},
    {"compound": "CC(=O)[O-].CC(=O)[O-].[Mn+2]", "note": "[10 mM Mn acetate, Mn acetate]", "values": [
      {"measurement": "AVERAGE % CHANGE IN VEIN DIAMETER", "setting": "vein of the inner elbow; [4]", "value": 0.0, "unit": "%"}
    ]},
    {"compound": "[Cl][Cu][Cl]", "note": "[10 mM CuCl2, CuCl2]", "values": [
      {"measurement": "AVERAGE % CHANGE IN VEIN DIAMETER", "setting": "vein of the inner elbow; [4]", "value": 10.5, "unit": "%"}
    ]},
    {"compound": "CC(=O)[O-].CC(=O)[O-].[Mg+2]", "note": "[10 mM Mg acetate, Mg acetate]", "values": [
      {"measurement": "AVERAGE % CHANGE IN VEIN DIAMETER", "setting": "vein of the inner elbow; [4]", "value": 27.9, "unit": "%"}
    ]},
    {"compound": "O=S(=O)([O-])[O-].[Mg+2]", "note": "[MgSO4, magnesium sulfate]", "values": [
      {"measurement": "Diameter Post-Application", "setting": "vein of the inner elbow", "value": 73.06, "unit": "pixels"},
      {"measurement": "Diameter Pre-Application", "setting": "vein of the inner elbow", "value": 65.86, "unit": "pixels"},
      {"measurement": "Percent change (vein diameter)", "setting": "vein of the inner elbow", "value": 10.93, "unit": "%"},
      {"measurement": "AVERAGE % CHANGE IN VEIN DIAMETER", "setting": "vein of the inner elbow; [4]", "value": 30.0, "unit": "%"},
      {"measurement": "AVERAGE % CHANGE IN VEIN DIAMETER", "setting": "vein of the inner elbow; Example 4, 100 mM", "value": 25.2, "unit": "%"},
      {"measurement": "AVERAGE % CHANGE IN VEIN DIAMETER", "setting": "vein of the inner elbow; Example 4, 1 M", "value": 22.9, "unit": "%"},
      {"measurement": "optimal concentration", "setting": "vein of the inner elbow; Example 4, from 10 mM, 100 mM and 1 M tested", "value": 10, "unit": "mM"},
      {"measurement": "vasodilation of the vein of the elbow (in words)", "setting": "vein of the inner elbow; Example 4", "value": "powerful vasodilator"},
      {"measurement": "effect on venous fill time (in words)", "setting": "[1]", "value": "substantial increases in venous filling time compared to baseline control"},
      {"measurement": "Increase in Venous Diameter Following Hand Elevation", "setting": "dorsal hand veins; MgSO4 10 mM in water, benzalkonium chloride 1%, maximal dilation after return to horizontal, control (dry swab) <10%", "value": 30, "unit": "%"}
    ]},
    {"compound": "[Cl-].[Cl-].[Sr+2]", "note": "[10 mM SrCl2, SrCl2]", "values": [
      {"measurement": "AVERAGE % CHANGE IN VEIN DIAMETER", "setting": "vein of the inner elbow; [4]", "value": "−6.0", "unit": "%"},
      {"measurement": "vasodilation of the vein of the elbow (in words)", "setting": "vein of the inner elbow; Example 4", "value": "did not show vasodilation"}
    ]},
    {"compound": "O=S(=O)([O-])[O-].[Ca+2]", "note": "[10 mM CaSO4, CaSO4]", "values": [
      {"measurement": "AVERAGE % CHANGE IN VEIN DIAMETER", "setting": "vein of the inner elbow; [4]", "value": 17.7, "unit": "%"}
    ]},
    {"compound": "benzalkonium chloride [1% benzalkonium chloride, reference compound]", "values": [
      {"measurement": "Diameter Post-Application", "setting": "vein of the inner elbow", "value": 37.80, "unit": "pixels"},
      {"measurement": "Diameter Pre-Application", "setting": "vein of the inner elbow", "value": 34.41, "unit": "pixels"},
      {"measurement": "Percent change (vein diameter)", "setting": "vein of the inner elbow", "value": 9.85, "unit": "%"}
    ]},
    {"compound": "[Cl-].[Cl-].[Mg+2]", "note": "[MgCl2]", "values": [
      {"measurement": "AVERAGE % CHANGE IN VEIN DIAMETER", "setting": "vein of the inner elbow; [4]", "value": 6.5, "unit": "%"},
      {"measurement": "VENOUS FILL TIME", "setting": "[1]; [2]", "value": 158, "unit": "s"},
      {"measurement": "% CHANGE FROM BASELINE (venous fill time)", "setting": "[1]; [2]", "value": 190, "unit": "%"},
      {"measurement": "effect on venous fill time (in words)", "setting": "[1]", "value": "substantial increases in venous filling time compared to baseline control"}
    ]},
    {"compound": "O=S(=O)([O-])[O-].[Cu+2]", "note": "[10 mM CuSO4, CuSO4]", "values": [
      {"measurement": "AVERAGE % CHANGE IN VEIN DIAMETER", "setting": "vein of the inner elbow; [4]", "value": 20.95, "unit": "%"}
    ]}
  ]
}
